Assays:
C3H murine model = settings: cited from earlier work
hair follicle = assay: Maintenance of hair follicle integrity in vitro (antibody labelling of compartment markers Ki67, keratin K14, transglutaminase, keratin hHa5); format: cell-based, human; settings: 14 days of culture, ecdysterone 0.01 μg/ml, compared with reference follicle at D=0
From the text: In order to characterize more fully the effect of this substance on the hair follicle, we monitored the mitotic activity of the bulb cells and also the various specific differentiation programmes of the outer sheath, of the inner sheath and of the pilar shaft, in the presence or absence of this substance.
The integrity of the follicle compartments after 14 days of culture was thus monitored by means of antibodies that recognize markers specific for each of these compartments: the mitosis marker Ki67, specific for the matrix (S. Commo & B. A. Bernard, 1997, Br. J. Dermatol. 137: 31-38); keratin K14, specific for the outer sheath (ibid.); transglutaminase, specific for the inner sheath (ibid.); and keratin hHa5, specific for the pillar shaft, and in particular the keratogenic zone and the cuticle (L. Langbein et al., 1999, J. Biol. Chem. 274: 19874-19884).

human hair follicle = assay: Human hair follicle survival in vitro model; format: cell-based
Method: We had developed and patented a model for a surviving human follicle in vitro (FR 95-08465) making it possible to evaluate the effect of a substance on follicle survival and extension. We used this in vitro model for evaluating the effect of ecdysterone on hair follicle growth and survival. Various concentrations of this substance were tested: 0.01 μg/ml, 0.1 μg/ml, 1 μg/ml and 10 μg/ml.

CC(C)(O)CC[C@@H](O)[C@](C)(O)[C@H]1CC[C@@]2(O)C3=CC(=O)[C@@H]4C[C@@H](O)[C@@H](O)C[C@]4(C)[C@H]3CC[C@]12C [ecdysterone]
hair regrowth (C3H murine model): stimulate hair regrowth
expression of follicle compartment markers (Ki67, keratin K14, transglutaminase, keratin hHa5) (hair follicle): all the markers studied conserve an expression that is comparable to that of the reference follicle at D=0
human hair follicle survival in vitro (human hair follicle; ecdysterone 0.01 μg/ml): significantly increases human hair follicle survival
human hair follicle survival in vitro (human hair follicle; ecdysterone 0.1 μg/ml): significantly increases human hair follicle survival
human hair follicle survival in vitro (human hair follicle; ecdysterone 10 μg/ml): significantly increases human hair follicle survival
